Reference: article PMC4595804, “A strategy to discover decoy chemokine ligands with an anti-inflammatory activity” (Scientific Reports, 2015)

Tests used:
[1] = target: T1, CCL22 D58A (Homo sapiens, UniProt O00626, D58A); test: Calcium responses induced by chemokine mutant, neutraligand protocol; format: cell-based; conditions: 10 μM compound, 5 nM chemokine; remaining response
T1 construct: codes for the mature CCL17 or CCL22 with an N-terminal thioredoxin-hexahistidin (TRX- (His)6) tag; TRX-(His)6 (N, cleaved yes); made in house; host or cells: E. coli BL21 (DE3)
T1 sequence (O00626 25-93 D58A): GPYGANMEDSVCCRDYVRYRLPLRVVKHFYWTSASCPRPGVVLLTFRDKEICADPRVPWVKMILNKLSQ
Method: (§1) Dye loaded cells were placed in the FlexStation 3 (Molecular Devices). Calcium mobilization was measured at 401 and 475 nm emission fluorescence after excitation at 355 nm. For the primary screening, the ligands (50μl of chemokine mixed with DMSO or test compounds) were added to the cells at 40 s, followed by digitonin addition (50μl) at 100 s to the cells. Molecules were screened at a final concentration of 2μg/ml with 5 nM CCL17 or CCL22. […] Raw fluorescence data (at 401 and 475 nm) were exported and the ratio 401/475 was calculated. The calcium response values (height of peak response over baseline) were determined. Hits were selected by comparing the response amplitude at the time of the chemokine addition ± test compound. The Z’ factor[29] was calculated according to the following equation: Z’ = 1-(3SD+ + 3SD−)/|Ave+ − Ave−|, where SD+ and Ave+ are respectively the standard deviation and the mean value of the positive controls (chemokine + DMSO), while SD− and Ave− are respectively the standard deviation and the mean value of the negative controls (HEPES-BSA (0.1%) mixed with DMSO, or cells mixed with C-021). Hit molecules were confirmed by performing concentration-response curves and their half maximal inhibitory concentration (IC50) values were calculated using the Kaleidagraph software.
(§2) and the denaturated chemokines (disulfite bonds reduced by β-mercaptoethanol). The
(§3) chemokine activity was then, tested in the in vitro assays. […]

[2] = target: T2, CCL22 W55A (Homo sapiens, UniProt O00626, W55A); test: as above; format: cell-based; conditions: 10 μM compound, 5 nM chemokine; remaining response
T2 construct: codes for the mature CCL17 or CCL22 with an N-terminal thioredoxin-hexahistidin (TRX- (His)6) tag; TRX-(His)6 (N, cleaved yes); made in house; host or cells: E. coli BL21 (DE3)
T2 sequence (O00626 25-93 W55A): as the sequence (O00626 25-93 D58A) above, with W31A, A34D counted along it
Method: as §1, §2, §3

[3] = target: T3, CCL3 (Homo sapiens, UniProt P10147); test: Selectivity, neutraligand protocol, EGFP-CCR5+ HEK cells; format: cell-based; conditions: 10 μM compound, 5 nM CCL3, EGFP-CCR5+ HEK cells
T3 construct: purchased R&D systems
T3 sequence (P10147 24-92): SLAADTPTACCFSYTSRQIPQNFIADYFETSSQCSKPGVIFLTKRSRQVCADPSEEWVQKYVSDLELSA
Method: (§4) Figure 6 (a) Selectivity of CCL17 and CCL22 neutraligands towards 10 chemokines according to the “neutraligand protocol”. […] Each column represents the mean (block) ± SD (bars) of n = 3 experiments performed in triplicate. *p < 0.05; **p < 0.01; ***p < 0.005 as compared to chemokine + DMSO. (b) Chemokine neutraligands inhibited CCR4 endocytosis induced by CCL22 or CCL17. EGFP-CCR4^+ HEK cells were incubated for 30 min with DMSO or chemokine (100 nM CCL22 or CCL17) in the presence or absence of test compounds. […] Cell surface EGFP-tagged CCR4 receptors were measured by EGFP antibody labeling and flow cytometry analysis. CCR4 internalization was expressed as a percentage of total receptor surface expression calculated using control cells incubated with DMSO (100%). Each column represents the mean (block) ± SD (bars) of n = 3 experiments performed in triplicate. *p < 0.05; **p < 0.01; ***p < 0.005 as compared to chemokine alone. (c,d) Inhibition of CCL17 and CCL22- induced CCR4^+HUT78 T cell chemotaxis by neutraligands. […] The number of migrating cells induced by a chemokine alone was set at 100% migration. The number of migrating cells in the presence of chemokine and compounds were expressed as the corresponding percentages. Results were analyzed by fitting the experimental curves (% of migrating cells vs log compound concentration) using the Kaleidagraph software program, and the corresponding IC50 values were calculated. Means and SD values of triplicates were plotted.
(§5) Human cDNAs encoding CCR4 and CXCR3 receptors were cloned in pIRES plasmid (Clontech) while cDNAs encoding CCR2, CCR5, CXCR2 and CXCR4 receptors were cloned in pCEP4 vector (Life technologies). The receptors are cloned in frame with a signal peptide fused to enhanced green fluorescent protein (EGFP) as described previously. All plasmid constructs were fully sequenced prior to transfections. Human Kidney Embryonic HEK-293 cells (ATCC) were maintained in Minimal Essential Medium (MEM, Invitrogen) supplemented with 10% FCS, penicillin (100 U/ml), streptomycin (100 μg/ml) and L-glutamine (2 mM) (Invitrogen) at 37 °C and 5% CO2. The cells were transfected with pIRES EGFP-CCR4 plasmid using calcium phosphate precipitation method. Stably EGFP-CCR4^+ HEK cells were selected for 5 weeks with geneticin (G-418, 600μg/ml), and resulting cell clones were checked by fluorescence microscopy and FACS analysis. HEK cells stably expressing human CXCR2, CXCR3, CXCR4, CCR5 and CCR2 were generated as described previously.
as §1

[4] = target: T4, CCL4 (Homo sapiens, UniProt P13236); test: as above; format: cell-based; conditions: 10 μM compound, 5 nM CCL4, EGFP-CCR5+ HEK cells
T4 construct: purchased R&D systems
T4 sequence (P13236 24-92): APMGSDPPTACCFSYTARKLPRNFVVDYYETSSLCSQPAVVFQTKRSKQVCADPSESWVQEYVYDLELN
Method: as §4, §5, §1

[5] = target: T5, CCL5 (Homo sapiens, UniProt P13501); test: as above; format: cell-based; conditions: 10 μM compound, 5 nM CCL5, EGFP-CCR5+ HEK cells
T5 construct: (His)6; made in house; host or cells: E. coli BL21 (DE3)
T5 sequence (P13501 24-91): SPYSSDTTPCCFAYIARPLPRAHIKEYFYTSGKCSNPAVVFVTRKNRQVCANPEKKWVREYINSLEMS
Method: as §4, §5, §1

[6] = tested on: CCR4+ HUT78 cells; test: HUT78 chemotaxis: compounds alone or preincubated with the cells (antagonist protocol); format: cell-based, human; conditions: for chemotactic activity of the compound by itself: HUT78 cells, no chemokine; for inhibition of CCR4+ HUT78 T cell migration, compound preincubated with the cells: receptor antagonist protocol, 1 μM, 3 nM CCL17 or CCL22
Method: Cell migration was carried out in RPMI1640-BSA (0.1%) using Transwell 96-well plates (Corning Costar, 5 μm pore size, polycarbonate membranes). […] Lower wells contained the same medium diluted with DMSO or chemokine (3 nM CCL17 or CCL22).
0.1% BSA using Transwell 96-well plates (Corning Costar, 5µm pore size, polycarbonate […]
the same medium diluted with DMSO or chemokine (3nM CCL17 or CCL22). In neutraligand inhibition studies, prior to their use, CCL17 (a) and CCL22 (b) were pre-incubated with […]
in the lower compartment. For characterization of the antagonist properties, the compounds were pre-incubated with the cells in the upper compartment. C-021 (1µM, stripped bars), the CCR4 receptor antagonist, was used as a control in both incubation protocols. Results are expressed as the percentage of cells that migrated to the lower chamber. Data represent the means±SD. Experiments were performed in triplicate.
(1 picture or pasted object on this page, not shown here)

SMILES | calcium response induced by CCL22 D58A preincubated with compound [1] | calcium response induced by CCL22 W55A preincubated with compound [2] | effect on calcium responses induced by CCL3 [3] | effect on calcium responses induced by CCL4 [4] | effect on calcium responses induced by CCL5 [5] | chemotactic activity of the compound by itself [6] | inhibition of CCR4+ HUT78 T cell migration, compound preincubated with the cells [6]
CC(C)=CCn1cnc2c1c(=O)n(C)c(=O)n2C [GPN279, 1,3-dimethyl-7-(3-methylbut-2-enyl)-1H-purine-2,6(3H, 7H)-dione] | neither inhibited WT nor CCL22 mutants | neither inhibited WT nor CCL22 mutants | no effect | no effect | no effect | devoid of chemotactic activity | no ability to inhibit
O=C(OCC(O)CO)c1ccccc1O (centres unmarked) [GPN136, 2,3-dihydroxypropyl 2-hydroxybenzoate] | 76.0 ± 3.0% | 46.0 ± 3.0% | no effect | no effect | no effect | devoid of chemotactic activity | no ability to inhibit
